Measured values: US9808470B2, “Estrogenic components for use in the treatment of neurological disorders” (UNIVERSITE DE LIEGE, priority 2012, dated 2017)

Assays:
Assay type in all cases: in vivo
doublecortin (DCX) = test: Ex.8 therapeutic HIE rat model: doublecortin staining
Experimental: (§1) To study the therapeutic effect of estetrol, newborn rat pups were assigned to one of the following 14 groups at postnatal day 7 (FIG. 23(B)): Sham group (n=12), Vehicle (n=15), 5 mg/kg/day E4 (n=11), 10 mg/kg/day E4 (n=11), 5 mg/kg/day E4+1.6 mg/kg/day PROG (n=11), 10 mg/kg/day E4+1.6 mg/kg/day PROG (n=11), 5 mg/kg/day E4+16 mg/kg/day PROG (n=11), 10 mg/kg/day E4+16 mg/kg/day PROG (n=13), 5 mg/kg/day E4+136 ng//kg/day E2 (n=11), 10 mg/kg/day E4+136 ng/kg/day E2 (n=11), 5 mg/kg/day E4+1.6 mg/kg/day PROG+136 ng/kg/day E2 (n=12), 10 mg/kg/day E4+1.6 mg/kg/day PROG+136 ng/kg/day E2 (n=11), 5 mg/kg/day E4+16 mg/kg/day PROG+136 ng/kg/day E2 (n=11), 10 mg/kg/day E4+16 mg/kg/day PROG+136 ng/kg/day (n=12) groups. […] After surgery, the pups were returned to their dams and allowed to recover for 1 hour. The pups were then placed in a humidified hypoxic in vivo cabinet (CoyLab). […]
The sections were heated in 10 mmol/L citrate buffer (pH 6.0) at 100° C. for 10 minutes. […] Samples were analyzed with the aid of a microscope (Olympus Vanox AHBT3, Olympus), and the ImageJ software 15 (NIH). The percentage of positively stained cells was quantified as a sum of positively stained either DCX or VEGF cells divided by the total number of DAPI positive cells expressed in percentage.

[1] = Ex.2 neonatal HIE rat model, pre-treatment: body weight
Experimental: Sprague-Dawley pregnant rats were obtained from Janvier (France). After delivery newborn rat pups were housed with their dams and reared normally at room temperature (25° C.) under a 12-hour light-dark cycle. All experimental protocols were approved by the University of Liege Ethical Committee. All efforts were made to minimize animal suffering.
Estetrol (E4) was dissolved in saline solution at different concentrations and an equal volume (5 μl/g) of the solution was injected intraperitoneally into the pups from the E4 group(s). Rat pups from the Vehicle group were intraperitoneally injected a saline solution. Rat pups from the Sham group were not injected at all.
Ischemia was produced by surgery encompassing left common carotid artery double ligation and cut; hypoxia was produced by the inhalation of 11%-8% of oxygen balanced by nitrogen at decreased concentration of oxygen for 20 minutes, followed by inhalation of 8% oxygen and 92% nitrogen at constant concentration for 35 minutes.
After delivery, newborn rat pups were assigned to one of the following 4 groups: Sham group, Vehicle group, E4 5 mg/kg/per day group and E4 50 mg/kg/per day group. From day 4 to day 7 inclusive, rat pups were injected intraperitoneally either vehicle (Vehicle group) or E4 (5 mg/kg or 50 mg/kg in accordance to the group assignment) or not injected at all (Sham group). At day 7, 30 minutes after last injection, animals from Vehicle and E4 (5 mg/kg or 50 mg/kg) groups passed through surgery encompassing left common carotid artery double ligation and cut, followed by hypoxia produced by the inhalation of 11%-8% of oxygen balanced by nitrogen at decreased concentration for 20 minutes, followed by inhalation of 8% oxygen and 92% nitrogen at constant concentration for 35 minutes. The Sham group went through similar procedures without left common carotid artery ligation and hypoxia. All the manipulations were performed at 37° C. Rat pups recovered with their dams until being sacrificed at postnatal day 14. […]

[2] = Ex.8 therapeutic HIE rat model: brain weight and brain-body weight ratio; conditions: 10 mg/kg/day E4, PND14, vs vehicle
Experimental: All the compounds used for in vivo studies were dissolved in absolute Ethanol (ETOH) and further diluted in saline solution at a final concentration of ETOH 10%. An equal volume (5 μ1/g) of the solution was injected intraperitoneally (ip) into the pups from study groups. Rat pups from the vehicle group were ip injected a saline solution containing 10% ETOH. Rat pups from the Sham group were not injected at all.
as §1

Question: What does the source list for `C[C@]12CC[C@@H]3c4ccc(O)cc4CC[C@H]3[C@@H]1[C@@H](O)[C@@H](O)[C@@H]2O` [E4, 1,3,5(10)-estratrien-3,15α,16α,17β-tetrol]?
Answer: percentage of DCX positively stained cells (doublecortin (DCX); 5 mg/kg/day E4, CA2/CA3): 15.09±12.17%; DCX positively stained cell percentage (doublecortin (DCX); 5 mg/kg/day E4, hippocampus): 59.73±3.44%; body weight ([1]; E4 5 mg/kg ip day 4-7 before HI, day 8, vs Sham): sham operated group had significantly higher body weight; body weight ([1]; E4 5 mg/kg ip day 4-7 before HI, post-operative days 13 and 14, vs vehicle): significantly higher body weight than vehicle treated animals; body weight ([1]; E4 50 mg/kg ip day 4-7 before HI, day 10, vs Sham): sham operated group had significantly higher body weight; brain weight [2]: significantly higher brain weight than the vehicle alone
